Experimental data: ChEMBL document CHEMBL4483862, “Open-source discovery of chemical leads for next-generation chemoprotective antimalarials” (2018)

System: Plasmodium berghei
Assay: Luciferase/luciferin-expressing antifolate-resistant parasites were used to infect a culture of HepG2 cells that were pre-incubated with compounds. Infected hepatocytes emit light due to the luciferase reaction. Assay results are presented as the percent inhibition of light emission compared to control. […]
Format: functional
Conditions: sporozoite; for IC90: read-out: LUCIFERASE INFECTION ASSAY - IC90

Compound: COCCNc1ccc2ncc(-c3ccc(Cl)cc3)n2n1
- IC50 (HEPG2TOX_HILL_SLOPE 7.9, HEPG2TOX_R_SQUARED 0.252, PBLUC_HILL_SLOPE 6.86, PBLUC_R_SQUARED 0.283, read-out: LUCIFERASE INFECTION ASSAY - IC50): 4.3 µM
- IC90: 5.92 µM

Compound: Cc1ccc(NC2=CC(=O)CC(c3ccco3)C2)c(N)c1 (centres undefined)
- IC50 (HEPG2TOX_HILL_SLOPE 7.93, HEPG2TOX_R_SQUARED 0.791, PBLUC_HILL_SLOPE 1.82, PBLUC_R_SQUARED 0.701, read-out: LUCIFERASE INFECTION ASSAY - IC50): 2 µM
- IC90: 6.68 µM

Compound: Oc1ccc(-c2cn3c(-c4ccc(Cl)cc4)cnc3cn2)cc1
- IC50 (HEPG2TOX_HILL_SLOPE 7.91, HEPG2TOX_R_SQUARED 0.667, PBLUC_HILL_SLOPE 4.16, PBLUC_R_SQUARED 0.739, read-out: LUCIFERASE INFECTION ASSAY - IC50): 3.32 µM
- IC90: 5.63 µM

Compound: O=C(CCN1CCN(c2ccccc2)CC1)NNC(=O)c1ccc(C(F)(F)F)cn1
- IC50 (HEPG2TOX_HILL_SLOPE 7.92, HEPG2TOX_R_SQUARED 0.92, PBLUC_HILL_SLOPE 7.4, PBLUC_R_SQUARED 0.199, read-out: LUCIFERASE INFECTION ASSAY - IC50): 5.84 µM
- IC90: 7.86 µM

Compound: CCCCCc1nnc(NC(=O)c2nccnc2N)s1
- IC50 (HEPG2TOX_HILL_SLOPE 7.97, HEPG2TOX_R_SQUARED 0.296, PBLUC_HILL_SLOPE 11.4, PBLUC_R_SQUARED 0.31, read-out: LUCIFERASE INFECTION ASSAY - IC50): 3.76 µM
- IC90: 4.56 µM

Compound: CN(C)CCNC(=O)c1ccc(-c2cn3c(-c4cccs4)cnc3cn2)cc1
- IC50 (HEPG2TOX_HILL_SLOPE 7.97, HEPG2TOX_R_SQUARED 0.151, read-out: LUCIFERASE INFECTION ASSAY - IC50): > 8.43 µM
- IC90: > 8.43 µM

Compound: COc1ccc2c(C)cc3nnc(SCC(=O)NCC45CC6CC(CC(C6)C4)C5)n3c2c1
- IC50 (HEPG2TOX_HILL_SLOPE 7.95, HEPG2TOX_R_SQUARED 0.512, PBLUC_HILL_SLOPE 13.7, PBLUC_R_SQUARED 0.353, read-out: LUCIFERASE INFECTION ASSAY - IC50): 8.94 µM
- IC90: > 10 µM

Compound: Cc1ccc2nc(NC(=O)C(C)Oc3ccccc3)c(C(=O)NC3CCCCC3)n2c1 (centres undefined)
- IC50 (HEPG2TOX_HILL_SLOPE 7.98, HEPG2TOX_R_SQUARED 0.0955, PBLUC_HILL_SLOPE 9.58, PBLUC_R_SQUARED 0.283, read-out: LUCIFERASE INFECTION ASSAY - IC50): 6.26 µM
- IC90: > 7.85 µM

Compound: Cc1cc(-c2ccccc2)nc(SCc2ccc(C#N)cc2)n1
- IC50 (HEPG2TOX_HILL_SLOPE 7.96, HEPG2TOX_R_SQUARED 0.286, PBLUC_HILL_SLOPE 151, PBLUC_R_SQUARED 0.106, read-out: LUCIFERASE INFECTION ASSAY - IC50): 5.87 µM
- IC90: 5.95 µM

Compound: CC(C)(C)CC(=O)Nc1ccc(-c2nc3ccccc3[nH]2)cc1
- IC50 (HEPG2TOX_HILL_SLOPE 7.93, HEPG2TOX_R_SQUARED 0.604, PBLUC_HILL_SLOPE 0.372, PBLUC_R_SQUARED 0.913, read-out: LUCIFERASE INFECTION ASSAY - IC50): 0.0164 µM
- IC90: 6 µM

Compound: CC(C)c1ccccc1N(C(=O)C1CC(=O)N(CCc2ccccc2)C1)c1nc2ccccc2s1 (centres undefined)
- IC50 (HEPG2TOX_HILL_SLOPE 7.95, HEPG2TOX_R_SQUARED 0.294, read-out: LUCIFERASE INFECTION ASSAY - IC50): > 10 µM
- IC90: > 10 µM

Compound: COc1ccc(Nc2nccc3nc(-c4ccc(C)cc4)[nH]c23)cc1
- IC50 (HEPG2TOX_HILL_SLOPE 7.88, HEPG2TOX_R_SQUARED 0.839, PBLUC_HILL_SLOPE 3.67, PBLUC_R_SQUARED 0.381, read-out: LUCIFERASE INFECTION ASSAY - IC50): 7.4 µM
- IC90: > 10 µM

Compound: O=C(NC(=O)c1cc(Br)cc(Br)c1)Nc1cc(C(F)(F)F)cc(C(F)(F)F)c1
- IC50 (HEPG2TOX_HILL_SLOPE 7.89, HEPG2TOX_R_SQUARED 0.4, PBLUC_HILL_SLOPE 3.95, PBLUC_R_SQUARED 0.259, read-out: LUCIFERASE INFECTION ASSAY - IC50): 3.04 µM
- IC90: 5.3 µM

Compound: O=C(Nc1nonc1-c1cccs1)c1ccc(Br)cc1
- IC50 (HEPG2TOX_HILL_SLOPE 7.96, HEPG2TOX_R_SQUARED 0.814, PBLUC_HILL_SLOPE 7.42, PBLUC_R_SQUARED 0.0569, read-out: LUCIFERASE INFECTION ASSAY - IC50): 4.73 µM
- IC90: 6.36 µM

Compound: COc1ccccc1N(C)S(=O)(=O)c1ccc(C(=O)NNC(=O)c2nn(C)c(=O)c3ccccc23)cc1
- IC50 (HEPG2TOX_HILL_SLOPE 7.89, HEPG2TOX_R_SQUARED 0.384, read-out: LUCIFERASE INFECTION ASSAY - IC50): > 10 µM
- IC90: > 10 µM

Compound: COc1ccc(NCC2(c3ccnc(-c4ccccc4Cl)c3)CC2)cc1
- IC50 (HEPG2TOX_HILL_SLOPE 7.95, HEPG2TOX_R_SQUARED 0.722, PBLUC_HILL_SLOPE 6.14, PBLUC_R_SQUARED 0.58, read-out: LUCIFERASE INFECTION ASSAY - IC50): 6.01 µM
- IC90: 8.59 µM

Compound: COc1cc(N2C(=O)C=CC2=O)cc(OC)c1OC
- IC50 (HEPG2TOX_HILL_SLOPE 7.92, HEPG2TOX_R_SQUARED 0.512, PBLUC_HILL_SLOPE 9.52, PBLUC_R_SQUARED 0.0663, read-out: LUCIFERASE INFECTION ASSAY - IC50): > 12.5 µM
- IC90: > 12.5 µM

Compound: Clc1ccc(-c2cnc3cnc(-c4ccc(NCCN5CCOCC5)nc4)cn23)cc1
- IC50 (HEPG2TOX_HILL_SLOPE 7.91, HEPG2TOX_R_SQUARED 0.577, PBLUC_HILL_SLOPE 49, PBLUC_R_SQUARED 0.381, read-out: LUCIFERASE INFECTION ASSAY - IC50): 7.08 µM
- IC90: 7.4 µM

Compound: O=C(N/N=C1\CCCCc2ccccc21)c1cc2ccccc2cc1O
- IC50 (HEPG2TOX_HILL_SLOPE 7.95, HEPG2TOX_R_SQUARED 0.651, read-out: LUCIFERASE INFECTION ASSAY - IC50): > 10 µM
- IC90: > 10 µM

Compound: COc1ccc(OCC[N+](C)(Cc2csc(Nc3ccccc3)n2)Cc2csc(Nc3ccccc3)n2)cc1
- IC50 (HEPG2TOX_HILL_SLOPE 7.97, HEPG2TOX_R_SQUARED 0.988, PBLUC_HILL_SLOPE 3.3, PBLUC_R_SQUARED 0.694, read-out: LUCIFERASE INFECTION ASSAY - IC50): 4.08 µM
- IC90: 7.93 µM

Compound: Cn1c2c(cc(-c3ccccc3)c1=O)CN(Cc1cnn(-c3ccc(F)cc3)c1)CC2
- IC50 (HEPG2TOX_HILL_SLOPE 7.96, HEPG2TOX_R_SQUARED 0.425, PBLUC_HILL_SLOPE 14.6, PBLUC_R_SQUARED 0.0729, read-out: LUCIFERASE INFECTION ASSAY - IC50): 7.11 µM
- IC90: > 7.96 µM

Compound: CCOc1cccc(-c2cn3c(-c4cnn(C)c4)cnc3cn2)c1
- IC50 (HEPG2TOX_HILL_SLOPE 7.89, HEPG2TOX_R_SQUARED 0.0776, PBLUC_HILL_SLOPE 1.98, PBLUC_R_SQUARED 0.483, read-out: LUCIFERASE INFECTION ASSAY - IC50): 3.78 µM
- IC90: > 10.3 µM

Compound: CN(C)c1ccc(-c2cnc3cnc(-c4ccc(N)nc4)cn23)cc1
- IC50 (HEPG2TOX_HILL_SLOPE 7.95, HEPG2TOX_R_SQUARED 0.49, PBLUC_HILL_SLOPE 26.9, PBLUC_R_SQUARED 0.584, read-out: LUCIFERASE INFECTION ASSAY - IC50): 8.12 µM
- IC90: 8.82 µM

Compound: FC(F)(F)Oc1cccc(-c2nc3ccnc(Nc4ccccc4)c3[nH]2)c1
- IC50 (HEPG2TOX_HILL_SLOPE 7.94, HEPG2TOX_R_SQUARED 0.491, PBLUC_HILL_SLOPE 12.6, PBLUC_R_SQUARED 0.533, read-out: LUCIFERASE INFECTION ASSAY - IC50): 8.84 µM
- IC90: > 10 µM

Compound: O=[N+]([O-])c1ccc(N2CCc3ccccc32)cc1
- IC50 (HEPG2TOX_HILL_SLOPE 7.98, HEPG2TOX_R_SQUARED 0.901, PBLUC_HILL_SLOPE 21.8, PBLUC_R_SQUARED 0.45, read-out: LUCIFERASE INFECTION ASSAY - IC50): 13.3 µM
- IC90: > 13.7 µM

Compound: CC(OC(=O)c1cc2ccccc2[nH]1)C(=O)Nc1cccc(C#N)c1 (centres undefined)
- IC50 (HEPG2TOX_HILL_SLOPE 7.96, HEPG2TOX_R_SQUARED 0.0358, PBLUC_HILL_SLOPE 3.96, PBLUC_R_SQUARED 0.0932, read-out: LUCIFERASE INFECTION ASSAY - IC50): 8.49 µM
- IC90: > 10 µM

Compound: COc1ccc(/C=C2\Oc3cc(O)cc(C)c3C2=O)c(OC)c1
- IC50 (HEPG2TOX_HILL_SLOPE 7.92, HEPG2TOX_R_SQUARED 0.287, PBLUC_HILL_SLOPE 2.15, PBLUC_R_SQUARED 0.542, read-out: LUCIFERASE INFECTION ASSAY - IC50): 6.5 µM
- IC90: > 10.6 µM

Compound: N=C1N/C(=N/NC(=O)c2ccc(CN3C(=O)c4cccc5cccc3c45)cc2)c2ccccc21
- IC50 (HEPG2TOX_HILL_SLOPE 8, HEPG2TOX_R_SQUARED 0.371, PBLUC_HILL_SLOPE 2.14, PBLUC_R_SQUARED 0.479, read-out: LUCIFERASE INFECTION ASSAY - IC50): 4.48 µM
- IC90: > 10 µM

Compound: N#Cc1cc(C(=O)c2ccc([N+](=O)[O-])cc2)c2nc3ccccc3n2c1N
- IC50 (HEPG2TOX_HILL_SLOPE 7.9, HEPG2TOX_R_SQUARED 0.276, PBLUC_HILL_SLOPE 1.76, PBLUC_R_SQUARED 0.097, read-out: LUCIFERASE INFECTION ASSAY - IC50): 9.24 µM
- IC90: > 10 µM

Compound: CCCCc1nc2ccccc2n1CC(=O)Nc1cc(S(=O)(=O)N(C)C)ccc1OC
- IC50 (HEPG2TOX_HILL_SLOPE 7.99, HEPG2TOX_R_SQUARED 0.0779, PBLUC_HILL_SLOPE 2.22, PBLUC_R_SQUARED 0.125, read-out: LUCIFERASE INFECTION ASSAY - IC50): > 10 µM
- IC90: > 10 µM

Compound: CC(C)c1noc2ncc(C(=O)Nc3ccc(Cl)c(C(F)(F)F)c3)cc12
- IC50 (HEPG2TOX_HILL_SLOPE 7.95, HEPG2TOX_R_SQUARED 0.873, PBLUC_HILL_SLOPE 16.7, PBLUC_R_SQUARED 0.65, read-out: LUCIFERASE INFECTION ASSAY - IC50): 8.58 µM
- IC90: 9.79 µM

Compound: CCOc1ccccc1C(=O)N[C@H](C(=O)Nc1sc2c(c1C(N)=O)CCC2)C(C)C
- IC50 (HEPG2TOX_HILL_SLOPE 7.99, HEPG2TOX_R_SQUARED 0.813, PBLUC_HILL_SLOPE 17.7, PBLUC_R_SQUARED 0.214, read-out: LUCIFERASE INFECTION ASSAY - IC50): 8.77 µM
- IC90: 9.93 µM
